Where two headings read alike, the source gives them in different places.
Key:
[1] = tested on: ovarian cancer cells (PA-1); test: Cancer cell line growth inhibition (SRB assay); format: cell-based; settings: read-out: Cancer Cell Line GI50 Range PA-1
[2] = tested on: colon cancer cells (HCT116); test: Cancer cell line growth inhibition (SRB assay); format: cell-based; settings: Homo sapiens, HCT-116, read-out: Cancer Cell Line GI50 Range HCT116
Breast cancer cells = test: Cancer cell line growth inhibition (SRB assay); format: cell-based; settings: Homo sapiens; MDA-MB-468; read-out: Cancer Cell Line GI50 Range MDA-MB-468
human TTK = target: T1, human TTK (Homo sapiens, UniProt P33981); test: TTK inhibition assay (indirect ELISA); format: biochemical; settings: read-out: TTK IC50 Range
T1 construct: amino terminal GST fusion of full length human TTK; purchased Invitrogen
T1 sequence (P33981 1-857): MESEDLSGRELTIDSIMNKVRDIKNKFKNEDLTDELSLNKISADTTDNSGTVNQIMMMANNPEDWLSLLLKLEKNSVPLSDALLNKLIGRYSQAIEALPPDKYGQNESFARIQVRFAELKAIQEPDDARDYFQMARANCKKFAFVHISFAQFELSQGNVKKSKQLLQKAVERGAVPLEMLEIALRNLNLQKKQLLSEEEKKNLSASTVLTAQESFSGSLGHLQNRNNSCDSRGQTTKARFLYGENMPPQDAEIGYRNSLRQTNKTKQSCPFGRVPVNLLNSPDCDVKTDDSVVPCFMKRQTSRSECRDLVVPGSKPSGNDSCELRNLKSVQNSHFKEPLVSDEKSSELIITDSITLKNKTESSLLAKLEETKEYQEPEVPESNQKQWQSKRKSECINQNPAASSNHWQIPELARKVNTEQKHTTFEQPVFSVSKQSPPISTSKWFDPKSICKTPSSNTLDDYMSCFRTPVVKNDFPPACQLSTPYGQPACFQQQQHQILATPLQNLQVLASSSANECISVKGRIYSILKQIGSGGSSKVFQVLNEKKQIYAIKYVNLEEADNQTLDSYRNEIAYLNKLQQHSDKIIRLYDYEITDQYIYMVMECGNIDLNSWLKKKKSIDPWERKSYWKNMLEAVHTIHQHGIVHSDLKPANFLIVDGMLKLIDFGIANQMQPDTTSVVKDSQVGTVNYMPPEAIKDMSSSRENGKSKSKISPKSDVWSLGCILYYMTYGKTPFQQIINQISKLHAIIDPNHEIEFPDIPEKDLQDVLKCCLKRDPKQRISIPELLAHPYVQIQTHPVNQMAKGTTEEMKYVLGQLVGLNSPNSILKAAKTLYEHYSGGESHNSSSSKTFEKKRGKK

[3] = PA-1 ovarian cancer cells, SRB assay
[4] = HCT116 colon cancer cells, SRB assay

Compound	GI50 ([1]; Homo sapiens, PA-1)	GI50 [2]	GI50 (Breast cancer cells)	IC50 (human TTK)	GI50 [1, 3]	GI50 [2, 4]
CN1[C@@H]2CC[C@H]1C[C@@H](Oc1ccc(-c3n[nH]c4ccc(C(=O)NC(c5ccccc5)C(F)F)cc34)cc1)C2 (stereo partly drawn) [Example A227, N-(2,2-difIuoro-1-phenylethyl)-3-(4-(((1R,3R,5S)-8-methyl-8-azabicyclo[3.2.1]octan-3-yl)oxy)phenyl)-1H-indazole-5-carboxamide]	0.1 to 0.5 µM	< 0.1 µM	> 0.5 µM	< 0.1 µM		
CC1(C)CC(=O)c2cc(-c3n[nH]c4ccc(C(=O)N[C@H](c5ccccn5)C5CC5)cc34)ccc2O1 [Example A236, (S)-N-(cyclopropyl(pyridin-2-yl)methyl)-3-(2,2-dimethyl-4-oxochroman-6-yl)-1H-indazole-5-carboxamide]	> 0.5 µM	> 0.5 µM	> 0.5 µM	< 0.1 µM		
CC1=CC(C)(C)Oc2ccc(-c3n[nH]c4ccc(C(=O)N[C@H](c5ccccn5)C5CC5)cc34)cc21 [Example A237, (S)-N-(cyclopropyl(pyridin-2-yl)methyl)-3-(2,2,4-trimethyl-2H-chromen-6-yl)-1H-indazole-5-carboxamide]	> 0.5 µM	> 0.5 µM	> 0.5 µM	< 0.1 µM		
Cc1cc(=O)n(C)c2ccc(-c3n[nH]c4ccc(C(=O)N[C@H](c5ccccn5)C5CC5)cc34)cc12 [Example A238]	0.1 to 0.5 µM	0.1 to 0.5 µM	> 0.5 µM	< 0.1 µM		
Cc1cc(=O)n(C)c2ccc(-c3n[nH]c4ccc(C(=O)N[C@H](c5ccccn5)C5CCCC5)cc34)cc12 [Example A239, (S)-N-(cyclopentyl(pyridin-2-yl)methyl)-3-(1,4-dimethyl-2-oxo-1,2-dihydroquinolin-6-yl)-1H-indazole-5-carboxamide]	> 0.5 µM	> 0.5 µM	> 0.5 µM	< 0.1 µM		
O=C(N[C@H](c1ccccn1)C1CC1)c1ccc2[nH]nc(-c3ccc4c(c3)C(=O)CCO4)c2c1 [Example A241]	> 0.5 µM	> 0.5 µM	> 0.5 µM	< 0.1 µM		
CS(=O)(=O)c1cc(-c2n[nH]c3ccc(C(=O)NC(c4ccccn4)C4CC4)cc23)ccc1OC1CCNCC1 (centres unmarked) [Example A243, N-(cyclopropyl(pyridin-2-yl)methyl)-3-(3-(methylsulfonyl)-4-(piperidin-4-yloxy)phenyl)-1H-indazole-5-carboxamide]	> 0.5 µM	> 0.5 µM	> 0.5 µM	< 0.1 µM		
CN1CCC2(CC1)CC(=O)c1cc(-c3n[nH]c4ccc(C(=O)N[C@H](c5ccccc5)C5CC5)cc34)ccc1O2 [Example A251, (S)-N-(cyclopropyl(phenyl)methyl)-3-(1′-methyl-4-oxospiro[chroman-2,4′-piperidin]-6-yl)-1H-indazole-5-carboxamide]	0.1 to 0.5 µM	0.1 to 0.5 µM	0.1 to 0.5 µM	< 0.1 µM		
CN1C2CCC1CC(Oc1ccc(-c3n[nH]c4ccc(C(=O)N[C@H](c5ccccn5)C5CCCC5)cc34)cc1)C2 (stereo partly drawn) [Example A252, N-((S)-cyclopentyl(pyridin-2-yl)methyl)-3-(4-(((1R,3R,5S)-8-methyl-8-azabicyclo[3.2.1]octan-3-yl)oxy)phenyl)-1H-indazole-5-carboxamide]	< 0.1 µM	< 0.1 µM	< 0.1 µM	< 0.1 µM		
CN1CC[C@@H](Oc2ccc(-c3n[nH]c4ccc(C(=O)NCC5(N6CCOCC6)CCCCC5)cc34)cc2)C1 [Example A481, (R)-3-(4-((1-methylpyrrolidin-3-yl)oxy)phenyl)-N-((1-morpholinocyclohexyl)methyl)-1H-indazole-5-carboxamide]				< 0.1 µM	0.1 to 0.5 µM	0.1 to 0.5 µM
O=C(NCC1(N2CCOCC2)CCCCC1)c1ccc2[nH]nc(-c3ccc(N4CC5CCC(C4)O5)cc3)c2c1 [Example A483, 3-(4-(8-oxa-3-azabicydo[3.2.1]octan-3-yl)phenyl)-N-((1-morpholinocyclohexyl)methyl)-1H-indazole-5-carboxamide]	0.1 to 0.5 µM	0.1 to 0.5 µM		< 0.1 µM		
O=C(NCC1(CN2CCOCC2)CC1)c1ccc2[nH]nc(-c3ccc(N4CCOCC4)cc3)c2c1 [Example A494, N-((1-(morpholinomethyl)cyclopropyl)methyl)-3-(4-morpholinophenyl)-1H-indazole-5-carboxamide]				< 0.1 µM	> 0.5 µM	> 0.5 µM
O=C(NCC1(N2CCOCC2)CCCCC1)c1ccc2[nH]nc(-c3ccc(OC4CCN(C5COC5)CC4)cc3)c2c1 [Example A506, N-((1-morpholinocyclohexyl)methyl)-3-(4-((1-(oxelan-3-yl)piperidin-4-yl)oxy)phenyl)-1H-indazole-5-carboxamide]	< 0.1 µM	< 0.1 µM		< 0.1 µM		
O=C(N[C@H](c1ccccn1)C1CCCC1)c1ccc2[nH]nc(-c3ccc(N4C5CCC4CC(O)C5)cc3)c2c1 (some centres unmarked) [Example A513]			< 0.1 µM	< 0.1 µM		
CC(C)[C@H](NC(=O)c1ccc2[nH]nc(-c3ccc(N4C5CCC4CC(O)C5)cc3)c2c1)c1ccccc1Cl (stereo partly drawn) [Example A514, N-((S)-1-(2-chlorophenyl)-2-methylpropyl)-3-(4-((1R,3R,5S)-3-hydroxy-8-azabicyclo[3.2.1]octan-8-yl)phenyl)-1H-indazole-5-carboxamide]			< 0.1 µM	< 0.1 µM		

Further lines, results first:

GI50 ([1]; Homo sapiens, PA-1)	GI50 [2]	GI50 (Breast cancer cells)	IC50 (human TTK)	GI50 [1, 3]	GI50 [2, 4]	Compound
0.1 to 0.5 µM	0.1 to 0.5 µM	0.1 to 0.5 µM	< 0.1 µM			CC(C)(O)CN1CCC(Oc2ccc(-c3n[nH]c4ccc(C(=O)N[C@H](c5ccsc5)C5CC5)cc34)cc2)CC1 [Example A218, (S)-N-(cyclopropyl(thiophen-3-yl)methyl)-3-(4-((1-(2-hydroxy-2-methylpropyl)piperidin-4-yl)oxy)phenyl)-1H-indazole-5-carboxamide]
0.1 to 0.5 µM	0.1 to 0.5 µM	> 0.5 µM	< 0.1 µM			O=C(N[C@H](c1ccsc1)C1CC1)c1ccc2[nH]nc(-c3ccc(OC4CCN(C[C@@H](O)C(F)(F)F)CC4)cc3)c2c1 [Example A223, N-((S)-cyclopropyl(thiophen-3-yl)methyl)-3-(4-((1-((R)-3,3,3-trifluoro-2-hydroxypropyl)piperidin-4-yl)oxy)phenyl)-1H-indazole-5-carboxamide]
0.1 to 0.5 µM	0.1 to 0.5 µM	> 0.5 µM	< 0.1 µM			O=C(N[C@@H](c1ccsc1)C1CC1)c1ccc2[nH]nc(-c3ccc(OC4CCN(C[C@@H](O)C(F)(F)F)CC4)cc3)c2c1 [Example A224, N-((R)-cyclopropyl(thiophen-3-yl)methyl)-3-(4-((1-((R)-3,3,3-trifluoro-2-hydroxypropyl)piperidin-4-yl)oxy)phenyl)-1H-indazole-5-carboxamide]
< 0.1 µM	< 0.1 µM	0.1 to 0.5 µM	< 0.1 µM			O=C(N[C@H](c1ccccn1)C1CC1)c1ccc2[nH]nc(-c3ccc(OC4CCN(C[C@@H](O)C(F)(F)F)CC4)cc3)c2c1 [Example A225, N-((S)-cyclopropyl(pyridin-2-yl)methyl)-3-(4-((1-((R)-3,3,3-trifluoro-2-hydroxypropyl)piperidin-4-yl)oxy)phenyl)-1H-indazole-5-carboxamide]
0.1 to 0.5 µM	0.1 to 0.5 µM	0.1 to 0.5 µM	< 0.1 µM			O=C(N[C@H](c1ccccn1)C1CCCC1)c1ccc2[nH]nc(-c3ccc(OC4CCN(C[C@@H](O)C(F)(F)F)CC4)cc3)c2c1 [Example A229, N((S)-cyclopentyl(pyridin-2-yl)methyl)-3-(4-((1-((R)-3,3,3-trifluoro-2-hydroxypropyl)piperidin-4-yl)oxy)phenyl)-1H-indazole-5-carboxamide]
> 0.5 µM	> 0.5 µM	> 0.5 µM	< 0.1 µM			Cn1ccc(=O)c2cc(-c3n[nH]c4ccc(C(=O)N[C@H](c5ccccn5)C5CCCC5)cc34)ccc21 [Example A240, (S)-N-(cyclopentyl(pyridin-2-yl)methyl)-3-(1-methyl-4-oxo-1,4-dihydroquinolin-6-yl)-1H-indazole-5-carboxamide]
0.1 to 0.5 µM	> 0.5 µM	> 0.5 µM	< 0.1 µM			CN1CCC(=O)c2cc(-c3n[nH]c4ccc(C(=O)N[C@H](c5ccccn5)C5CCCC5)cc34)ccc21 [Example A242, (S)-N-(cyclopentyl(pyridin-2-yl)methyl)-3-(1-methyl-4-oxo-1,2,3,4-tetrahydroquinolin-6-yl)-1H-indazole-5-carboxamide]
